Laboratory results taken from PubChem BioAssay (NCI).
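Method: 48-hour compound exposure of cells in 96-well plates, five concentrations, linear interpolation of endpoints. GI50 is the concentration that inhibits growth by half. TGI: concentration producing complete growth inhibition.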

Tests used:
Experiment in all cases: NCI-60 cell line screen, 48 h
[1] = system: SNB-75 CNS
[2] = system: NCI-H23 lung
[3] = system: RPMI-8226 leukemia
[4] = system: HT29 colon
[5] = system: SF-268 CNS
[6] = system: KM12 colon
[7] = system: SW-620 colon
[8] = system: DU-145 prostate
[9] = system: UACC-257 melanoma
[10] = system: RXF 393 renal
[11] = system: SNB-19 CNS
[12] = system: UACC-62 melanoma
[13] = system: SR leukemia
[14] = system: SK-MEL-2 melanoma
[15] = system: SF-539 CNS
[16] = system: HL-60(TB) leukemia
[17] = system: M14 melanoma
[18] = system: MOLT-4 leukemia
[19] = system: A498 renal
[20] = system: LOX IMVI melanoma
[21] = system: MCF7 breast
[22] = system: SN12C renal
[23] = system: OVCAR-8 ovarian
[24] = system: U251 CNS
[25] = system: MDA-MB-231 breast
[26] = system: PC-3 prostate
[27] = system: HOP-92 NSCLC
[28] = system: K-562 leukemia
[29] = system: TK-10 renal
[30] = system: A549 NSCLC
[31] = system: ACHN renal
[32] = system: HCT-15 colon
[33] = system: CCRF-CEM leukemia
[34] = system: 786-0 renal
[35] = system: HCT-116 colon
[36] = system: SK-MEL-28 melanoma
[37] = system: UO-31 renal
[38] = system: NCI-H226 lung
[39] = system: NCI/ADR-RES ovarian
[40] = system: OVCAR-5 ovarian
[41] = system: BT-549 breast
[42] = system: HS 578T breast
[43] = system: HOP-62 NSCLC
[44] = system: MALME-3M melanoma
[45] = system: OVCAR-4 ovarian
[46] = system: SK-OV-3 ovarian
[47] = system: IGROV1 ovarian
[48] = system: CAKI-1 renal
[49] = system: NCI-H460 lung
[50] = system: COLO 205 colon
[51] = system: NCI-H522 lung
[52] = system: SK-MEL-5 melanoma
[53] = system: MDA-MB-435
[54] = system: SF-295 CNS
[55] = system: HCC-2998 colon
[56] = system: OVCAR-3 ovarian

Work on `Cn1cc(-c2ccc(-c3cn(C)c4ccc(Cl)cc34)[nH]2)c2cc(Cl)ccc21` yielded a GI50 [1] of 1750 nM, a TGI [1] of 4380 nM and a GI50 [2] of 3230 nM. It also gave a TGI [2] of 24700 nM, a GI50 [3] of 356 nM and a TGI [3] of 1310 nM. It also gave a GI50 [4] of 3920 nM, a TGI [4] of 16000 nM and a GI50 [5] of 1380 nM. For the same compound, the TGI [5] was 4090 nM, the GI50 [6] was 1200 nM and the TGI [6] was 3770 nM. The GI50 [7] was 647 nM, the TGI [7] was 3140 nM and the GI50 [8] was 3570 nM. For the same compound, the TGI [8] was 15300 nM, the GI50 [9] was 2250 nM and the TGI [9] was 4490 nM. It also gave a GI50 [10] of 882 nM, a TGI [10] of 2310 nM and a GI50 [11] of 1390 nM. The TGI [11] was 4060 nM, the GI50 [12] was 946 nM and the TGI [12] was 2390 nM. For the same compound, the GI50 [13] was 617 nM, the TGI [13] was 3190 nM and the GI50 [14] was 1990 nM. It also gave a TGI [14] of 4910 nM, a GI50 [15] of 1140 nM and a TGI [15] of 3450 nM. It also gave a GI50 [16] of 438 nM, a TGI [16] of 2620 nM and a GI50 [17] of 1620 nM. The TGI [17] was 4190 nM, the GI50 [18] was 2850 nM and the TGI [18] was 11000 nM. The GI50 [19] was 4170 nM, the TGI [19] was 19000 nM and the GI50 [20] was 1220 nM. For the same compound, the TGI [20] was 2670 nM, the GI50 [21] was 2850 nM and the TGI [21] was 15400 nM. The GI50 [22] was 2390 nM, the TGI [22] was 5720 nM and the GI50 [23] was 1440 nM. The TGI [23] was 5580 nM, the GI50 [24] was 398 nM and the TGI [24] was 1290 nM. It also gave a GI50 [25] of 442 nM, a TGI [25] of 1980 nM and a GI50 [26] of 434 nM. The TGI [26] was 1720 nM, the GI50 [27] was 1150 nM and the TGI [27] was 3280 nM. It also gave a GI50 [28] of 377 nM, a TGI [28] of 2030 nM and a GI50 [29] of 3140 nM. The TGI [29] was 9800 nM, the GI50 [30] was 1790 nM and the TGI [30] was 4190 nM. The GI50 [31] was 1080 nM, the TGI [31] was 2280 nM and the GI50 [32] was 1100 nM. It also gave a TGI [32] of 2500 nM, a GI50 [33] of 373 nM and a TGI [33] of 1700 nM. The GI50 [34] was 5310 nM, the TGI [34] was 29500 nM and the GI50 [35] was 1990 nM. It also gave a TGI [35] of 5620 nM, a GI50 [36] of 1820 nM and a TGI [36] of 3950 nM. For the same compound, the GI50 [37] was 208 nM, the TGI [37] was 503 nM and the GI50 [38] was 1930 nM. For the same compound, the TGI [38] was 4250 nM, the GI50 [39] was 1840 nM and the TGI [39] was > 100000 nM. It also gave a GI50 [40] of 663 nM, a TGI [40] of 2820 nM and a GI50 [41] of 419 nM. The TGI [41] was 1710 nM, the GI50 [42] was 1140 nM and the TGI [42] was 5370 nM. The GI50 [43] was 2250 nM and the TGI [43] was 7760 nM.

In the case of `N#CC1=C(N)Oc2c(ccc3ccccc23)C1c1cccs1` (configuration not stated), the GI50 [2] is reported as 62.8 nM, the TGI [2] is reported as 12700 nM and the GI50 [3] is reported as 32.9 nM. For the same compound, the TGI [3] was 3600 nM, the GI50 [4] was 53.6 nM and the TGI [4] was 1120 nM. It also gave a GI50 [5] of 80.7 nM, a TGI [5] of 10100 nM and a GI50 [44] of 38 nM. For the same compound, the TGI [44] was 24300 nM, the GI50 [6] was 43.4 nM and the TGI [6] was 3450 nM. The GI50 [45] was 430 nM, the TGI [45] was 18700 nM and the GI50 [7] was 36.6 nM. The TGI [7] was 15200 nM, the GI50 [46] was 56.5 nM and the TGI [46] was 14700 nM. It also gave a GI50 [8] of 46.3 nM, a TGI [8] of 1030 nM and a GI50 [9] of 51.4 nM. It also gave a TGI [9] of 22200 nM, a GI50 [47] of 82.5 nM and a TGI [47] of 15800 nM. For the same compound, the GI50 [10] was 31.3 nM, the TGI [10] was 21800 nM and the GI50 [11] was 321 nM. For the same compound, the TGI [11] was 20700 nM, the GI50 [12] was 64.7 nM and the TGI [12] was 15200 nM. It also gave a GI50 [13] of 33.7 nM, a TGI [13] of 7810 nM and a GI50 [15] of 26 nM. It also gave a TGI [15] of 69.6 nM, a GI50 [16] of 28.3 nM and a TGI [16] of 79.3 nM. For the same compound, the GI50 [48] was 46.5 nM, the TGI [48] was 16100 nM and the GI50 [17] was 40.5 nM. The TGI [17] was 11900 nM, the GI50 [49] was 36 nM and the TGI [49] was 662 nM. It also gave a GI50 [18] of 59.4 nM, a TGI [18] of 14600 nM and a GI50 [19] of 23.2 nM. The TGI [19] was 84.3 nM, the GI50 [50] was 71.6 nM and the TGI [50] was 591 nM. For the same compound, the GI50 [20] was 79.8 nM, the TGI [20] was 14000 nM and the GI50 [21] was 35.4 nM. It also gave a TGI [21] of 13900 nM, a GI50 [22] of 81.6 nM and a TGI [22] of 12900 nM. The GI50 [23] was 55 nM, the TGI [23] was 12100 nM and the GI50 [24] was 40.7 nM. The TGI [24] was 11300 nM, the GI50 [51] was 18.5 nM and the TGI [51] was 84.6 nM. The GI50 [25] was 140 nM, the TGI [25] was 2720 nM and the GI50 [52] was 42.7 nM. It also gave a TGI [52] of 5200 nM, a GI50 [26] of 41 nM and a TGI [26] of 15000 nM. For the same compound, the GI50 [27] was 57.3 nM, the TGI [27] was 14100 nM and the GI50 [28] was 32.1 nM. It also gave a TGI [28] of 12000 nM, a GI50 [53] of 16.8 nM and a TGI [53] of 42 nM. It also gave a GI50 [29] of 66.9 nM, a TGI [29] of 20200 nM and a GI50 [30] of 61.5 nM. The TGI [30] was 14000 nM, the GI50 [31] was 84 nM and the TGI [31] was 14800 nM. It also gave a GI50 [54] of 51.1 nM, a TGI [54] of 17000 nM and a GI50 [55] of 132 nM. The TGI [55] was 3890 nM, the GI50 [32] was 44.2 nM and the TGI [32] was 10900 nM. The GI50 [33] was 33.7 nM, the TGI [33] was 11400 nM and the GI50 [34] was 57.7 nM. The TGI [34] was 11500 nM, the GI50 [56] was 26.9 nM and the TGI [56] was 70.4 nM. For the same compound, the GI50 [35] was 50.2 nM, the TGI [35] was 1830 nM and the GI50 [37] was 69.6 nM. For the same compound, the TGI [37] was 17500 nM, the GI50 [38] was 1060 nM and the TGI [38] was 19000 nM. The GI50 [39] was 36.8 nM, the TGI [39] was 6070 nM and the GI50 [40] was 129 nM. The TGI [40] was 16500 nM, the GI50 [41] was 68.8 nM and the TGI [41] was 3090 nM. The GI50 [42] was 30.2 nM, the TGI [42] was 14100 nM and the GI50 [43] was 58.3 nM. It also gave a TGI [43] of 18500 nM.
